Source: US12685312B2, “Sulfonamide apyrase inhibitors” (Texas Crop Science, Inc., priority 2022, dated 2026)

What was measured:
apyrase = experiment: Screen for apyrase inhibitors (Method 1, in vitro phosphate-release absorbance assay); assay type: biochemical; settings: inhibitor conc at 1 mM stock, 1 hr room temperature, absorbance 630 nm; rounded average of two assay results
How it was run: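 Phosphate-release colorimetric assay (Windsor method) in 60 mM Hepes, 3 mM MgCl2, 3 mM CaCl2, 3 mM ATP, pH 6.5, with compound or DMSO control added. Released phosphate developed with ammonium molybdate and ascorbic acid/TCA, then stopped with citrate/acetic acid.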

[1] = test system: Zymoseptoria tritici on wheat; experiment: Greenhouse crop test (Method 3), Zymoseptoria tritici on wheat; assay type: in vivo; settings: for enhancement of Imtrex over Imtrex alone: Imtrex 0.02 L/ha
Method: (§1) Method 3: Greenhouse Crop Tests
In this method, exemplary compounds were evaluated for their ability to control Zymoseptoria tritici on wheat, Botrytis cinerea on tomatoes, Asian Soya Rust (Phakopsora pachyrhizi) on soybean, and Brown Rust (Puccinia recondita) on wheat, in a controlled greenhouse environment in combination with one of four fungicides, Amistar, Imtrex, Proline or Balaya. In these studies, soybean cultivar Siverka, tomato (Money maker) and wheat plants (JB Diego) were used. Seeds were sown in 9 cm diameter pots to a depth of 1 to 2 cm using Petersfield potting compost (75% medium grade peat, 12% screened sterilized loam, 3% medium grade vermiculite, 10% grit (5 mm screened, lime free), 1.5 kg PG mix per m3, lime to pH5.5-6.0 and wetting agent (Vitax Ultrawet 200 ml per m3) and germinated/grown at 23 C under a 16 h day/8 h night light regime. Plants were treated two to three weeks after sowing when they were at the BBCH 11 growth stage (first pair of true leaves (unifoliate) unfolded. A track sprayer was used to treat the plants with the mixture of commercial fungicide and test compound using a water volume of 200 L/ha. Plants were inoculated with the appropriate fungi (pathogen) 24 hours after treatment. Fungal pathogens used were Botrytis cinerea (Grey mold on tomato plants), Zymoseptoria tritici (Septoria leaf blotch on wheat plants), Puccinia triticina (Brown rust on wheat plants) and Phakopsora pachyrhizi (Asian soy rust on soybean plants). Four replicates were used for each combination of fungicide, pathogen and test compound. Each plant was evaluated once the disease symptoms were fully expressed between seven to twenty days (depending on the pathogen) for % control of the disease. Appropriate controls were used for all experiments, including an ‘inoculation check’ wherein plants were inoculated with their specific pathogen to assess disease levels. Also, each commercial fungicide was tested on its own as a part of each treatment, this being benchmark against which the experimental compounds were evaluated. […] That is, the present compounds, although not fungicidal by themselves, enhance the activity of fungicides, thus the enhancer compounds work synergistically in combination with fungicides to control disease.
In these studies the fungicide was applied at the following rates

[2] = test system: Zymoseptoria tritici with a reduced susceptibility to SDHI fungicides; experiment: In vitro assessment of combination activity with fungicides (Method 2); assay type: cell-based; settings: fungicide at a rate just below that giving any control; visual % control;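 further: scored as inactive active or highly active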
Method: (§2) Method 2: In Vitro Assessment of Combination Activity
(§3) Selected compounds were assessed in combination with fungicides against a range of commercially important plant pathogenic fungi.
(§4) The test was conducted as follows. A fungicide was applied to a fungal plant pathogen at a rate slightly below that at which it gave any control, in combination with a suitable dose of the test compound. The test compound was recorded as active if control of the pathogen was observed.
(§5) In more detail, the test was conducted as follows. For each combination of fungicide, pathogen and test compound, the following wells were used. Well 1 contained a fungal pathogen growing on agar, and a fungicide at a rate just below that at which it gave any control of the pathogen. Well 2 was the same as Well 1, except that the test compound was also added at Rate 1. Well 3 was the same as Well 2, except that the test compound was added at Rate 2, where Rate 2 was higher than Rate 1. Finally, as a benchmark, Well 4 was the same as Well 1, except that it contained the fungicide at a higher rate, at which it gave partial control of the pathogen. Each of the Wells 1 to 4 were run in duplicate, giving a total of 8 wells for each combination of fungicide, pathogen and test compound. For each well, after a suitable period of incubation, a visual assessment of the % control of the pathogen by the fungicide was made.
(§6) The following fungicides were used in this assay: azoxystrobin, fluxapyroxad, and desthio prothioconazole. The following fungal pathogens were used in this assay: First, a strain of Zymoseptoria tritici with a reduced susceptibility to strobilurin fungicides; second a strain of Zymoseptoria tritici with a reduced susceptibility to SDHI fungicides (i.e., those that inhibit succinate dehydrogenase); and third, Microdochium nivale.

Microdochium nivale = experiment: as above; assay type: cell-based; settings: fungicide at a rate just below that giving any control; visual % control
Method: as §2, §3, §4, §5, §6

[3] = test system: Zymoseptoria tritici with a reduced susceptibility to strobilurin fungicides; experiment: as above; assay type: cell-based; settings: fungicide at a rate just below that giving any control; visual % control;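 further: scored as inactive active or highly active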
Method: as §2, §3, §4, §5, §6

[4] = test system: plant pathogenic fungi (Zymoseptoria tritici strains, Microdochium nivale); experiment: In vitro combination assay (Method 2), overall comparison with Roux Compound 13; assay type: cell-based; settings: azoxystrobin, fluxapyroxad, desthio prothioconazole; three fungal strains
Method: as §2, §3, §4, §5, §6

[5] = test system: Botrytis cinerea on tomatoes; experiment: Greenhouse crop test (Method 3), Botrytis cinerea on tomatoes; assay type: in vivo; settings: Botrytis cinerea on tomato, Imtrex 0.005 L/ha
Method: as §1
In this method, exemplary compounds were evaluated for their ability to control Zymoseptoria tritici on wheat, Botrytis cinerea on tomatoes, Asian Soya Rust (Phakopsora pachyrhizi) on soybean, and Brown Rust (Puccinia recondita) on wheat, in a controlled greenhouse environment in combination with one of four fungicides, Amistar, Imtrex, Proline or Balaya. In these studies, soybean cultivar Siverka, tomato (Money maker) and wheat plants (JB Diego) were used. Seeds were sown in 9 cm diameter pots to a depth of 1 to 2 cm using Petersfield potting compost (75% medium grade peat, 12% screened sterilized loam, 3% medium grade vermiculite, 10% grit (5 mm screened, lime free), 1.5 kg PG mix per m3, lime to pH5.5-6.0 and wetting agent (Vitax Ultrawet 200 ml per m3) and germinated/grown at 23 C under a 16 h day/8 h night light regime. Plants were treated two to three weeks after sowing when they were at the BBCH 11 growth stage (first pair of true leaves (unifoliate) unfolded. A track sprayer was used to treat the plants with the mixture of commercial fungicide and test compound using a water volume of 200 L/ha. Plants were inoculated with the appropriate fungi (pathogen) 24 hours after treatment. Fungal pathogens used were Botrytis cinerea (Grey mold on tomato plants), Zymoseptoria tritici (Septoria leaf blotch on wheat plants), Puccinia triticina (Brown rust on wheat plants) and Phakopsora pachyrhizi (Asian soy rust on soybean plants). Four replicates were used for each combination of fungicide, pathogen and test compound. Each plant was evaluated once the disease symptoms were fully expressed between seven to twenty days (depending on the pathogen) for % control of the disease. Appropriate controls were used for all experiments, including an ‘inoculation check’ wherein plants were inoculated with their specific pathogen to assess disease levels. Also, each commercial fungicide was tested on its own as a part of each treatment, this being benchmark against which the experimental compounds were evaluated. […]

[6] = test system: Asian Soya Rust (Phakopsora pachyrhizi) on soybean; experiment: Greenhouse crop test (Method 3), Asian Soya Rust on soybean; assay type: in vivo; settings: Proline 0.15 L/ha
Method: as §1
(§7) In this method, exemplary compounds were evaluated for their ability to control Zymoseptoria tritici on wheat, Botrytis cinerea on tomatoes, Asian Soya Rust (Phakopsora pachyrhizi) on soybean, and Brown Rust (Puccinia recondita) on wheat, in a controlled greenhouse environment in combination with one of four fungicides, Amistar, Imtrex, Proline or Balaya. In these studies, soybean cultivar Siverka, tomato (Money maker) and wheat plants (JB Diego) were used. […] Each plant was evaluated once the disease symptoms were fully expressed between seven to twenty days (depending on the pathogen) for % control of the disease. […] Also, each commercial fungicide was tested on its own as a part of each treatment, this being benchmark against which the experimental compounds were evaluated. […]

[7] = test system: Brown Rust (Puccinia recondita) on wheat; experiment: Greenhouse crop test (Method 3), Brown Rust on wheat; assay type: in vivo; settings: Imtrex 0.45 L/ha
Method: as §1, §7
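Wherever enhancement of activity of desthio prothioconazole is given: scored as inactive active or highly active.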
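Wherever enhancement of activity of fluxapyroxad is given: scored as inactive active or highly active.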

In the case of `O=C(Nc1ccc2c(c1)OCO2)c1ccc(S(=O)(=O)Nc2ccccc2Cl)cc1` [I-388, N-(benzo[d][1,3]dioxol-5-yl)-4-(N-(2-chlorophenyl)sulfamoyl)benzamide], the “% Inhibition of Apyrase” value (apyrase) is reported as 63% and the “enhancement of Balaya” value ([1]; Balaya 0.0015 L/ha) is reported as “greater than 45%”.

In the case of `O=C(Nc1cccc(NS(=O)(=O)c2ccc(Br)cc2Cl)c1)c1ccco1` [I-234, N-(3-((4-bromo-2-chlorophenyl)sulfonamido)phenyl)furan-2-carboxamide], the “enhancement of activity of desthio prothioconazole” value [2] is reported as “enhancing fungicidal activity”, the “enhancement of activity of fluxapyroxad” value [2] is reported as “enhancing fungicidal activity” and the “enhancement of activity of desthio prothioconazole” value (Microdochium nivale) is reported as “enhancing fungicidal activity”. For the same compound, the “enhancement of activity of fluxapyroxad” value (Microdochium nivale) was “enhancing fungicidal activity”, the “enhancement of activity of desthio prothioconazole” value [3] was “enhancing fungicidal activity” and the “% Inhibition of Apyrase” value (apyrase) was 66%. For the same compound, the “enhancer activity in the combination assay compared with Roux Compound 13” value [4] was “superior enhancer activity than Roux Compound 13”.

With `O=C(Nc1ccc2c(c1)OCO2)c1ccccc1NS(=O)(=O)c1cccc(C(F)(F)F)c1` [I-213, N-(benzo[d][1,3]dioxol-5-yl)-2-((3-(trifluoromethyl)phenyl)sulfonamido) benzamide] the “enhancement in combination with Imtrex over Imtrex alone” value [5] was “about 30%”, the “% Inhibition of Apyrase” value (apyrase) was 71% and the “enhancer activity in the combination assay compared with Roux Compound 13” value [4] was “superior enhancer activity than Roux Compound 13”.

`O=C(Nc1ccc(Br)cc1)c1cccc(S(=O)(=O)Nc2ccc(F)cc2)c1` [I-222, N-(4-bromophenyl)-3-(N-(4-fluorophenyl)sulfamoyl)benzamide] was tested, and the “% Inhibition of Apyrase” value (apyrase) was 71%, the “enhancement of the activity of Proline” value [6] was “greater than 60%” and the “enhancer activity in the combination assay compared with Roux Compound 13” value [4] was “superior enhancer activity than Roux Compound 13”.

In the case of `NS(=O)(=O)c1cccc(NC(=O)c2ccc(S(=O)(=O)Nc3ccc(Cl)cc3)cc2)c1` [I-387, 4-(N-(4-chlorophenyl)sulfamoyl)-N-(3-sulfamoylphenyl)benzamide], the “enhancement in combination with Imtrex over Imtrex alone” value [5] is reported as “about 30%” and the “% Inhibition of Apyrase” value (apyrase) is reported as 65%.

`O=C1CSc2ccc(C(=O)Nc3cccc(S(=O)(=O)Nc4ccc(Br)cc4)c3)cc2N1` [I-198, N-(3-(N-(4-bromophenyl)sulfamoyl)phenyl)-3-oxo-3,4-dihydro-2H-benzo[b][1,4]thiazine-6-carboxamide] was tested, and the “% Inhibition of Apyrase” value (apyrase) was 79%, the “enhancement of Imtrex over Imtrex alone” value [1] was “about 30%” and the “enhancement of the activity of Proline” value [6] was “over 90%”. The “enhancer activity in the combination assay compared with Roux Compound 13” value [4] was “superior enhancer activity than Roux Compound 13”.

For `O=C(Nc1cccc(-c2ccn[nH]2)c1)c1cccc(S(=O)(=O)Nc2ccc(Br)cc2)c1` [I-239, N-(3-(1H-pyrazol-5-yl)phenyl)-3-(N-(4-bromophenyl)sulfamoyl)benzamide], the “% Inhibition of Apyrase” value (apyrase) was 73%, the “enhancement of Imtrex over Imtrex alone” value [1] was “about 30%” and the “enhancer activity in the combination assay compared with Roux Compound 13” value [4] was “superior enhancer activity than Roux Compound 13”.

With `Cc1ccc(NC(=O)c2cccc(S(=O)(=O)Nc3cccc(Cl)c3)c2)nc1` [I-595, 3-(N-(3-chlorophenyl)sulfamoyl)-N-(5-methylpyridin-2-yl)benzamide] the “% Inhibition of Apyrase” value (apyrase) was 36% and the “additional Brown Rust control benefit in combination with Imtrex over Imtrex alone” value [7] was “greater than 40%”.

For `O=C(Nc1ccccc1S(=O)(=O)N1CCCC1)c1cccc(C(F)(F)F)c1` [I-826, N-(2-(pyrrolidin-1-ylsulfonyl)phenyl)-3-(trifluoromethyl)benzamide], the “% Inhibition of Apyrase” value (apyrase) was 40% and the “additional Brown Rust control benefit in combination with Imtrex over Imtrex alone” value [7] was “greater than 50%”.

`Cc1ccc(NS(=O)(=O)c2ccc(C(=O)N3CCc4ccccc43)cc2)cc1` [I-385, 4-(indoline-1-carbonyl)-N-(p-tolyl)benzenesulfonamide] was tested, and the “% Inhibition of Apyrase” value (apyrase) was 65% and the “enhancement of Imtrex over Imtrex alone” value [1] was “greater than 40%”.

In the case of `Cc1ccc(C(=O)Nc2ccccc2S(=O)(=O)Nc2ccccc2)cc1F` [I-236, 3-fluoro-4-methyl-N-(2-(N-phenylsulfamoyl)phenyl)benzamide], the “enhancement in combination with Imtrex over Imtrex alone” value [5] is reported as “about 30%”, the “% Inhibition of Apyrase” value (apyrase) is reported as 30% and the “enhancer activity in the combination assay compared with Roux Compound 13” value [4] is reported as “superior enhancer activity than Roux Compound 13”.
